Experimental data: patent publication US7605156B2, “Methods for the use of inhibitors of cytosolic phospholipase A2” (Wyeth, priority 2001, dated 2009)

Assays:
ApoE KO mice = assay: ApoE knockout mouse model of atherosclerosis; format: in vivo; details: 3.3 mg/g in chow, 20 weeks
B6 mice = assay: Experimental autoimmune encephalomyelitis (EAE), animal model of multiple sclerosis; format: in vivo; details: orally, 100 mg/kg, twice/day
Method: Six groups of B6 mice were immunized with MOG/CFA and injected with pertussis toxin to induce experimental autoimmune encephalomyelitis (EAE), an animal model of Multiple sclerosis. […] Another three groups of mice were treated with vehicle, Compound A or Compound B starting on the day of EAE onset (day 15) (orally, 100 mg/kg, twice/day). […] The results are shown in FIG. 1, wherein mean clinical score is a mean of clinical evaluation of each animal for that particular day. Animals are scored as follows: • 0 no clinical signs of EAE (no paralysis) • 1—paralysis of tail • 2—paralysis of tail and partial hind leg paralysis • 3—paralysis of tail And complete hind leg paralysis • 4—paralysis of tail, complete hind leg paralysis and a partial front leg paralysis • 5—moribund animal (all four limbs paralyzed, lack of responsiveness, these mice were immediately euthanized).

[1] = tested on: Primary cerebellar granule neurons; assay: Oxygen-glucose deprivation (OGD) in cultured neurons; format: cell-based, rat; details: various concentrations, added 60 minutes before OGD; 2 hours OGD, read 24 hours later
Method: Primary cerebellar granule neurons were isolated from P5-8 rat pups. Briefly, cerebelli were collected and pooled in ice-cold phosphate buffer saline (PBS) without Ca^2+ and Mg^2+. The tissue was finely chopped and transferred to an enzymatic dissociation media containing 20 IU/ml papain in Earle's balanced salt solution (Worthington Biochemical, Freehold, N.J.) and incubated for 30 minutes at 37° C. After enzymatic dissociation, the papain solution was aspirated and the tissue mechanically triturated with a fire-polished Pasteur pipette in complete media [Neurobasal Medium with B-27 supplement (Gibco, Grand Island, N.Y.), penicillin/streptomycin, aphidicolin, glutamate, potassium chloride] containing 2,000 IU/ml DNase and 10 mg/ml ovomucoid protease inhibitor. Single-cell suspensions in complete media were plated on pre-coated poly-L-ornithine/laminin 24-well plates (Becton-Dickinson, Bedford, Mass.) at a density of 5.0×10^5 cells/well. Cells were maintained for two weeks prior to experimentation.
Cultures were treated with Compound A at various concentrations, 60 minutes before OGD. Media was removed and replaced with deoxygenated buffer in an anaerobic chamber (80% nitrogen, 10% hydrogen, 10% carbon dioxide gas mixture). […] Cell death was determined by measuring lactate dehydrogenase release into the media 24 hours later (Roche Biochemicals). […]

Adult male Wistar rats [2] = assay: Transient middle cerebral artery occlusion (tMCAO); format: in vivo
Method: Adult male Wistar rats (Charles River, Wilmington, Mass.) 290-310 g were anesthetized with 3% isoflurane in 70% nitrous oxide and 30% oxygen through a nose cone. Temperature was maintained at 37° C. throughout the surgery using a heating lamp. Transient MCAO was induced for 90 min using the intraluminal suture method (see Longa, E. L. et al., 1989 Stroke 20:294-297). Briefly, an 18 mm length of 4-0 monofilament nylon suture coated with 0.1% poly-L-lysine (Belayev, L. et al, 1996 Stroke 27:1616-1623) and a flame-rounded tip was inserted into the external carotid artery and advanced through the internal carotid to occlude the origin of the middle cerebral artery (MCAO). Ninety minutes later the rats were re-anesthetized and the suture was withdrawn. Rats were sacrificed at 72 hrs post-MCAO.
Behavioral score: Animals are tested for motor deficits using a modified Bederson score. Briefly, animals are tested for flexion of the contralateral forelimb, twisting of the torso, decreased resistance to lateral push, circling to the contralateral side when holding the tail, and spontaneous circling. Each animal is scored 1 point for each behavior detected for a total of 5 points. Each animal is score at 90 min, just prior to reperfusion, at 24 hrs, 48 hrs and 72 hrs following MCAO.
Body weight is taken prior to MCAO surgery for baseline and 24 hrs, 48 hrs and 72 hrs after MCAO.
(§1) After sacrifice, the brains are extracted and placed in a rat brain matrix and 2 mm coronal slabs are taken from 4 mm caudal to the frontal pole and extending to the hindbrain. Sections are immersed in the active mitochondrial stain TTC at 37° C. for 10 min to delineate the lesion. Digitized sections are collected on the MCID image analysis system (Imaging Research, Inc. Ontario, Canada), area measurements are determined and a total lesion volume is calculated (area×distance in mm).

Adult male Wistar rats [3] = assay: Permanent middle cerebral artery occlusion (pMCAO); format: in vivo; details: dosed four times; 72 hours post ischemia
Method: Adult male Wistar rats (Charles River, Wilmington, Mass.) 270-300 g were anesthetized with 3% isoflurane in 70% nitrous oxide and 30% oxygen through a nose cone. Temperature was maintained at 37° C. throughout the surgery using a heating lamp. Permanent occlusion of MCAO was induced by electrocauterization of the distal portion of the MCA (via a craniotomy) with a 120 min ligation of both carotid arteries to interrupt collateral circulation (see Chen, S. T., et al, 1986 Stroke 17:738-743). Rats were sacrificed 72 hours post ischemia for measurement of infarct volume.
as §1

[4] = tested on: Primary dopaminergic neurons; assay: MPP+ exposure in dopaminergic neurons (3H-dopamine uptake); format: cell-based, rat; details: 10 μM MPP+ for 60 minutes, read 24 hours later
Method: Primary dopaminergic neurons were isolated from E15 rat embryos as described in Pong K., et al., (1997) J. Neurochem. 69 986-994. Briefly, the ventral mesencephalon was isolated and tissue was pooled in ice-cold phosphate buffer saline (PBS) without Ca^2+ and Mg^2+. The tissue was transferred to an enzymatic dissociation media containing 20 IU/ml papain in Earle's balanced salt solution (Worthington Biochemical, Freehold, N.J.) and incubated for 30 minutes at 37° C. After enzymatic dissociation, the papain solution was aspirated and the tissue mechanically triturated with a fire-polished Pasteur pipette in complete media [Neurobasal Medium with B-27 supplement (Gibco, Grand Island, N.Y.), penicillin/streptomycin, aphidicolin, glutamate] containing 2,000 IU/ml DNase and 10 mg/ml ovomucoid protease inhibitor. Single-cell suspensions in complete media were plated on pre-coated poly-L-ornithine/laminin 24-well plates (Becton-Dickinson, Bedford, Mass.) at a density of 5.0×10^5 cells/well. […]
Cultures were treated with various concentrations of Compound A and GDNF (glial-cell line derived neurotrophic factor, a positive control) hours before exposure to the neurotoxin MPP^+, the toxic metabolite of MPTP. […] Dopaminergic neuron viability was determined 24 hours later by measuring ^3H-dopamine uptake as described in Pong et al., 1997, supra.

[5] = 10 mg/kg and 30 mg/kg four times

| SMILES | atherosclerotic plaque burden at the aortic sinus (ApoE KO mice) [μm^2] | decrease of atherosclerotic plaque burden at the aortic sinus (ApoE KO mice; vs control animals, p<0.001) [%] | EAE clinical score: prevention of EAE (B6 mice; from the day of immunization) | EAE clinical score: clinical severity of EAE (B6 mice; starting on the day of EAE onset (day 15)) | OGD-induced cell death (lactate dehydrogenase release) [1] | behavioral deficits (modified Bederson score) (Adult male Wistar rats [2]; [5]) | weight loss following MCAO (Adult male Wistar rats [2]; [5]) | infarct volume (Adult male Wistar rats [2]; 10 mg/kg or 30 mg/kg four times (90 min, […], 24 hr, 48 hr post occlusion)) | therapeutically relevant window of opportunity (Adult male Wistar rats [2]; 30 mg/kg 3 times, first dose 4 or 6 hrs post occlusion, measuring infarct volume and neurological deficits) | significant treatment window (Adult male Wistar rats [2]; 30 mg/kg 3 times, first dose 4 or 6 hrs post occlusion, measuring weight loss) [h] | infarct volume (Adult male Wistar rats [3]) | dopaminergic neuron viability (3H-dopamine uptake) [4] |
| --- | --- | --- | --- | --- | --- | --- | --- | --- | --- | --- | --- | --- |
| O=C(O)c1ccc(CCCc2c(CCNS(=O)(=O)Cc3ccc(Cl)c(Cl)c3)n(C(c3ccccc3)c3ccccc3)c3ccc(Cl)cc23)cc1 [Example 44] | 282697±146462 | 45.6 | – | – | – | – | – | – | – | – | – | – |
| Cc1cccc(C)c1CS(=O)(=O)NCCc1c(CCCc2ccc(C(=O)O)cc2)c2cc(Cl)ccc2n1C(c1ccccc1)c1ccccc1 [Example 52, 4-{3-[1-benzhydryl-5-chloro-2-(2-{[(2,6-dimethylbenzyl)-sulfonyl]amino}ethyl)-1H-indol-3-yl]propyl}benzoic acid] | – | – | prevent EAE | reduce clinical severity of EAE | effective in protecting cultured neurons from OGD-induced cell death | effectively reduced behavioral deficits | reduced weight loss | significant level of neuroprotection | at least 6 hrs | 4 | significantly reduces infarct volume | effective to protect dopaminergic neuron viability against MPP^+ |
